For this assay, the target named is ROCK2 (human) (UniProt O75116). Briefly: Inhibition of ROCK2 Kinase Activity.

The source of these data is the Kinase Knowledgebase extract (Sharma et al. 2016).

Chain of ROCK2 (human) (O75116 whole entry, looked up): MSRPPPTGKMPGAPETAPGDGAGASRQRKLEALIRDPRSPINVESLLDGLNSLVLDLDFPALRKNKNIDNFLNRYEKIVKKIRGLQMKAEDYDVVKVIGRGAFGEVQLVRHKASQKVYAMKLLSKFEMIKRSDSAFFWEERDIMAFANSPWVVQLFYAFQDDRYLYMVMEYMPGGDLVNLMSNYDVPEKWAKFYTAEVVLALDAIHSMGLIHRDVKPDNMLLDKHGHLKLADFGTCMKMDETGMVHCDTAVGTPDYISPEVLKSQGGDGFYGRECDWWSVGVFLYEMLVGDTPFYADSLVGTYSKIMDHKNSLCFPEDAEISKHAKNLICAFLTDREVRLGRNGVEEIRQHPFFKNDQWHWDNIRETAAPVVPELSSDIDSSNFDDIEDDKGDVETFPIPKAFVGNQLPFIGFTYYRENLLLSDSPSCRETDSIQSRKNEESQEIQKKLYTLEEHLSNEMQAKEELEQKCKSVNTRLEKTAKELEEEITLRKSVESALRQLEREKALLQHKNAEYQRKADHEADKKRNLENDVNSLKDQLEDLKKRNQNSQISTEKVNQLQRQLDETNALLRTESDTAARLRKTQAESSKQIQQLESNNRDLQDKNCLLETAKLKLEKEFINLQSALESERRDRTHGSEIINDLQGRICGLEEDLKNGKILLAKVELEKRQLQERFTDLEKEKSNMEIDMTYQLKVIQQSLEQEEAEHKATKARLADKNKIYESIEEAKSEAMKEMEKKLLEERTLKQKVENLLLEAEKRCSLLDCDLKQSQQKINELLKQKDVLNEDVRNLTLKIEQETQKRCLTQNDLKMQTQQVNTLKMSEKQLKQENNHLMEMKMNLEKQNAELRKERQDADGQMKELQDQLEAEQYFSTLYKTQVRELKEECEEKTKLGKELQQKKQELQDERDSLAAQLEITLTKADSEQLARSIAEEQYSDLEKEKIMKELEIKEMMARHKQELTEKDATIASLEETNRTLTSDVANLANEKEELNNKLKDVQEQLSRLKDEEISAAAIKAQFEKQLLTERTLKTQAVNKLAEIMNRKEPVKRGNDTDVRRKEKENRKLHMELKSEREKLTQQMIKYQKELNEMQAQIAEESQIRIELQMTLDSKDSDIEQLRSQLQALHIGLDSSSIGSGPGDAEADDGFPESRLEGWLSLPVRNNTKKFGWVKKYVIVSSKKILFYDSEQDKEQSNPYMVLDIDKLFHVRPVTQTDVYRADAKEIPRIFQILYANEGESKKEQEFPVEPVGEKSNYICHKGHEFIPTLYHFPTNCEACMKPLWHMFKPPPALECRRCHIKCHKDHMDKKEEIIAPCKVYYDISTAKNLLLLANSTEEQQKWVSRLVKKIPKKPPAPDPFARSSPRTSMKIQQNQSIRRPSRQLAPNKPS

Usually IC50 stands for the concentration that gives 50% inhibition. Read a low IC50 as higher potency. For the compound `O=C(NCc1nc(-c2c[nH]c3ncccc23)n[nH]1)c1ccc(Oc2ccccc2)cc1`, the IC50 was > 5 µM. As for `O=C(NCc1nc(-c2c[nH]c3ncccc23)n[nH]1)C1CCCN1C(=O)OCc1ccccc1` (stereo not given), the figure is > 5 µM; as for `Cc1cc(C(=O)NCc2nc(-c3c[nH]c4ncccc34)n[nH]2)n[nH]1`, > 5 µM; as for `O=C(NCc1nc(-c2ccncc2)n[nH]1)c1cc(F)c(Cl)cc1F`, > 5 µM. In the case of `Cc1cc(C)c(C(=O)NCc2nc(-c3ccncc3)n[nH]2)c(C)c1`, the half-maximal inhibitory concentration (IC50) is > 5 µM.

Consider `O=C(NCc1nc(-c2c[nH]c3ncccc23)n[nH]1)C1CCCCC1`, for which the IC50 was > 5 µM. For `O=C(Cc1ccc(O)c(Cl)c1)NCc1nc(-c2ccncc2)n[nH]1`, the IC50 was > 5 µM. For `O=C(NCc1nc(-c2c[nH]c3ncccc23)n[nH]1)c1c(F)cccc1F`, the IC50 is > 5 µM. With `O=C(NCc1nc(-c2c[nH]c3ncccc23)n[nH]1)c1c(F)c(F)c(F)c(F)c1F`, the IC50 is > 5 µM. As to `CC(=O)c1cccc(C(=O)NCc2nc(-c3ccncc3)n[nH]2)c1`, the 50% inhibitory concentration (IC50) was > 5 µM. Consider `N#Cc1ccc(C(=O)NCc2nc(-c3c[nH]c4ncccc34)n[nH]2)cc1`, for which the half-inhibitory concentration (IC50) is > 5 µM.

Take `Cc1cc(C(=O)NCc2nc(-c3c[nH]c4ncccc34)n[nH]2)ccc1Br`: the IC50 was > 5 µM.

For the compound `O=C(NCc1nc(-c2ccncc2)n[nH]1)c1ccc2cc(O)ccc2c1`, the IC50 was ≤ 5 µM. With `O=C(NCc1nc(-c2ccncc2)n[nH]1)c1cc(O)ccc1[N+](=O)[O-]`, the half-inhibitory concentration (IC50) is > 5 µM. On to `O=C(Cc1c(F)cccc1F)NCc1nc(-c2ccncc2)n[nH]1`, for which the IC50 is > 5 µM. As to `O=C(CCc1cccc(Br)c1)NCc1nc(-c2ccncc2)n[nH]1`, the concentration for half-maximal inhibition (IC50) was > 5 µM. Regarding `Cc1ccc(C(=O)NCc2nc(-c3c[nH]c4ncccc34)n[nH]2)cc1C`, the IC50 was > 5 µM. Next, `O=C(NCc1nc(-c2ccncc2)n[nH]1)C1CCCN1C(=O)OCc1ccccc1` (stereo not given): > 5 µM; `O=C(NCc1nc(-c2c[nH]c3ncccc23)n[nH]1)C1CCc2ccccc21` (stereo not given): > 5 µM; `CCc1ccc(C(=O)NCc2nc(-c3c[nH]c4ncccc34)n[nH]2)cc1`: > 5 µM. Next, `COc1cc(C(=O)NCc2nc(-c3c[nH]c4ncccc34)n[nH]2)c([N+](=O)[O-])cc1OC`: > 5 µM; `O=C(CCc1cccc(Br)c1)NCc1nc(-c2c[nH]c3ncccc23)n[nH]1`: > 5 µM; `COc1cccc(C(=O)NCc2nc(-c3ccncc3)n[nH]2)c1`: > 5 µM. Take `CC(C)(C)OC(=O)N1CCCCC1C(=O)NCc1nc(-c2ccncc2)n[nH]1` (stereo not given): the concentration for half-maximal inhibition (IC50) was > 5 µM.

`O=C(NCc1nc(-c2c[nH]c3ncccc23)n[nH]1)c1cccc(Cl)c1[N+](=O)[O-]`: the IC50 was > 5 µM.

Take `O=C(NCc1nc(-c2ccncc2)n[nH]1)c1ccc(Cl)cc1Cl`: the concentration for half-maximal inhibition (IC50) was > 5 µM. As for `O=C(NCc1nc(-c2c[nH]c3ncccc23)n[nH]1)c1cc(F)c(F)cc1Cl`, the IC50 is > 5 µM. As to `O=C(NCc1nc(-c2c[nH]c3ncccc23)n[nH]1)c1cc(Cl)ccc1[N+](=O)[O-]`, the IC50 was > 5 µM.

Consider `O=C(NCc1nc(-c2ccncc2)n[nH]1)c1ccc(Cl)c([N+](=O)[O-])c1`, for which the IC50 was > 5 µM. Next, `Cc1ccc(C(=O)NCc2nc(-c3c[nH]c4ncccc34)n[nH]2)c(C)c1`: > 5 µM; `O=C(NCc1nc(-c2ccncc2)n[nH]1)c1ccncc1Cl`: > 5 µM. Next, `O=C(C=Cc1ccccc1Cl)NCc1nc(-c2c[nH]c3ncccc23)n[nH]1`: > 5 µM. As for `CC(NC(=O)c1cccs1)c1nc(-c2ccncc2)n[nH]1` (stereo not given), the figure is ≤ 5 µM; as for `Cc1ccccc1CCC(=O)NCc1nc(-c2ccncc2)n[nH]1`, > 5 µM. As to `O=C(NCc1nc(-c2ccncc2)n[nH]1)c1c(F)c(F)c(F)c(F)c1F`, the 50% inhibitory concentration (IC50) was > 5 µM. As for `N#Cc1cccc(C(=O)NCc2nc(-c3c[nH]c4ncccc34)n[nH]2)c1`, the figure is > 5 µM; as for `O=Cc1ccccc1OCC(=O)NCc1nc(-c2c[nH]c3ncccc23)n[nH]1`, > 5 µM; as for `Cc1cc(C(=O)NCc2nc(-c3ccncc3)n[nH]2)cc(Cl)n1`, > 5 µM. As for `CC(=O)Oc1ccc(C(=O)NCc2nc(-c3ccncc3)n[nH]2)c(O)c1`, the figure is ≤ 5 µM; as for `O=C(C=Cc1ccc(Cl)cc1)NCc1nc(-c2c[nH]c3ncccc23)n[nH]1`, > 5 µM; as for `COc1ccccc1CCC(=O)NCc1nc(-c2ccncc2)n[nH]1`, > 5 µM. For the compound `O=C(NCc1nc(-c2ccncc2)n[nH]1)C1CCCO1` (stereo not given), the IC50 was > 5 µM. Take `O=C(C=Cc1ccccc1C(F)(F)F)NCc1nc(-c2ccncc2)n[nH]1`: the IC50 was > 5 µM. As for `O=C(Cc1cccc(O)c1)NCc1nc(-c2ccncc2)n[nH]1`, the figure is > 5 µM; as for `O=C(NCc1nc(-c2ccncc2)n[nH]1)c1cccc(F)c1`, > 5 µM. Next, `CC(=O)Oc1cccc(C(=O)NCc2nc(-c3c[nH]c4ncccc34)n[nH]2)c1`: > 5 µM; `O=C(NCc1nc(-c2ccncc2)n[nH]1)c1c(Cl)cc(Cl)cc1Cl`: > 5 µM. For the compound `COc1ccc([N+](=O)[O-])c(C(=O)NCc2nc(-c3ccncc3)n[nH]2)c1`, the IC50 is > 5 µM. Next, `O=Cc1ccccc1C(=O)NCc1nc(-c2c[nH]c3ncccc23)n[nH]1`: > 5 µM; `c1ccc(COc2ccc(CNCc3nc(-c4ccncc4)n[nH]3)cc2)cc1`: > 5 µM; `O=C(NCc1nc(-c2ccncc2)n[nH]1)c1cc2ccccc2s1`: ≤ 5 µM.

For the compound `O=C(NCc1nc(-c2ccncc2)n[nH]1)c1cccc(Br)c1`, the 50% inhibitory concentration (IC50) is > 5 µM. As for `O=C(NCc1nc(-c2c[nH]c3ncccc23)n[nH]1)c1cc(F)ccc1[N+](=O)[O-]`, the half-maximal inhibitory concentration (IC50) is > 5 µM.

For the compound `O=C(NCc1nc(-c2c[nH]c3ncccc23)n[nH]1)c1cc(Cl)c(O)c(Cl)c1`, the concentration for half-maximal inhibition (IC50) is > 5 µM. Turning to `O=C(NCc1cc(-c2ccncc2)n[nH]1)c1ccc(O)cc1O`, the IC50 is ≤ 5 µM. As to `COc1ccc(Br)c(C(=O)NCc2nc(-c3c[nH]c4ncccc34)n[nH]2)c1`, the IC50 is > 5 µM. As for `O=C(Cc1ccccc1CO)NCc1nc(-c2c[nH]c3ncccc23)n[nH]1`, the figure is > 5 µM; as for `O=C(NCc1nc(-c2ccncc2)n[nH]1)c1ccccc1`, > 5 µM; as for `CC(C)(C)OC(=O)N1CC(O)CC1C(=O)NCc1nc(-c2c[nH]c3ncccc23)n[nH]1` (stereo not given), > 5 µM.

With `O=C(NCc1nc(-c2c[nH]c3ncccc23)n[nH]1)c1ccccc1Oc1ccccc1`, the half-maximal inhibitory concentration (IC50) is > 5 µM. Regarding `O=C(NCc1nc(-c2ccncc2)n[nH]1)c1cccc(Cl)c1Cl`, the concentration for half-maximal inhibition (IC50) was > 5 µM.

Consider `N#CCC(=O)NCc1nc(-c2c[nH]c3ncccc23)n[nH]1`, for which the IC50 was > 5 µM. On to `O=C(Nc1cccc2c(-c3ccncc3)n[nH]c12)c1cccs1`, for which the IC50 is > 5 µM. On to `CC(C(=O)NCc1nc(-c2c[nH]c3ncccc23)n[nH]1)c1ccc(O)cc1` (stereo not given), for which the IC50 is > 5 µM. Consider `O=C(C=Cc1ccccc1C(F)(F)F)NCc1nc(-c2c[nH]c3ncccc23)n[nH]1`, for which the IC50 was > 5 µM.
